The results in this text go back to PubChem BioAssay AID179 (DTP/NCI, 2004).

The source made the active and inactive calls.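 How the source made its calls: active means compounds giving half or more protection of infected cells from virus-caused growth loss, again on retest; inactive means the rest.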

For this assay, the system named is CEM cells HIV-1 protection, formazan growth assay. In words: NCI AIDS Antiviral Assay. The note with it: for IC50: measured here: growth of uninfected CEM cells. A digest of the protocol:
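Soluble formazan readout of cell growth; CEM cells ± HIV-1; 5 drug concs. ≥50% protection → retest; ≥50% again = moderately active; reproducible 100% = confirmed active.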

For `COc1ccc2oc3c4c2c1CCC4CCC3=O` (stereo not drawn), the outcome was inactive. Usually EC50 stands for the concentration needed to bring the measured effect to its halfway point. Usually IC50 stands for the concentration at which inhibition is half-maximal. A high value points to a need for much substance. As to `Nn1c(C23CC4CC(CC(C4)C2)C3)n[nH]c1=S`, the EC50 was 182 µM and the IC50 was above 200 µM. The corresponding values for `O=C1C(=O)c2ccccc2C(O)=C1C(CCc1ccccc1)C1=C(O)c2ccccc2C(=O)C1=O` are above 200 µM and 55 µM.

Regarding `CCN(CC)/[N+]([O-])=N/OCOC(C)=O`, the EC50 was above 200 µM and the IC50 was determined as 102 µM. The corresponding values for `COc1cc(N(CCC#N)CCC#N)ccc1/C(N=Nc1ccc(C(=O)O)cc1)=N/NC(=O)c1cc(Br)ccc1O` are above 200 µM and 26.3 µM. The corresponding values for `Cc1ccc(-n2c(CSc3ccc(Cl)cc3)nnc2SCc2nc3ccccc3[nH]2)cc1` are above 200 µM and 120 µM. The matching figures for `CC1=C(C(=O)Nc2ccc([N+](=O)[O-])cc2)C(c2ccccc2O)C(C(=O)Nc2ccc([N+](=O)[O-])cc2)=C(C)N1`: above 49 µM and 30.9 µM.

`Cc1cccc2c1CC(C1OC(=O)c3c(C)cccc31)C2=O` (stereo not drawn): the EC50 was above 200 µM and the IC50 stood at 120 µM. The matching figures for `CC(=O)CN(Cc1cc(C)c2c(c1)c1ccccc1n2Cc1ccccc1)S(=O)(=O)c1ccc(C)cc1`: above 19.5 µM and above 19.5 µM. In the case of `COC1OC2COC(c3ccccc3)OC2C(OS(=O)(=O)c2ccc(C)cc2)C1OS(=O)(=O)c1ccc(C)cc1` (stereo not drawn), the outcome was inactive.

For `O=C1Oc2ccccc2CC1C(=O)c1ccc(Cl)cc1` (stereo not drawn), the EC50 was above 18.2 µM and the 50% inhibitory concentration (IC50) was above 18.2 µM. Turning to `CCN(CC)CCNc1ccc([N+](=O)[O-])c2nc3ccc(OC)cc3c(NCCN(CC)CC)c12`, the EC50 was above 100 µM and the IC50 came out at 0.178 µM.

For the compound `CCOC(=O)C1=C(C)NC2=C(C(=O)N(c3ccccc3)C2c2ccccc2)C1c1ccccc1` (stereo not drawn), the EC50 is above 41.7 µM and the IC50 is above 41.7 µM.

`N#CC(=N)c1ncn(-c2ccc(N)cc2)c1N`: the EC50 is above 200 µM and the concentration for half-maximal inhibition (IC50) worked out at 195 µM. The corresponding values for `COC(=O)c1csc(-c2nc(CCNC(=O)OC(C)(C)C)sc2Br)n1` are above 79.4 µM and 31.6 µM.

Consider `Cc1c(C(=O)O)c2cc3ccccc3cc2c(=O)n1C`, for which the EC50 was above 200 µM and the IC50 is above 200 µM.

As to `Cc1ccc(N=NC(=O)NNc2ccc(C)cc2Br)c(Br)c1`, the EC50 was above 200 µM and the IC50 is 35.5 µM.

For `N#CC1(c2ccccc2)C(c2ccccc2)CC(O)(c2ccccc2)C(C(=O)c2ccccc2)C1c1ccccc1` (stereo not drawn), the EC50 was above 100 µM and the 50% inhibitory concentration (IC50) was found to be 15.1 µM. The corresponding values for `Nc1nnc(Cc2ccccc2[N+](=O)[O-])c(=O)[nH]1` are above 29.5 µM and above 29.5 µM. The matching figures for `CNc1ccc2[nH]c(=O)ccc2c1[N+](=O)[O-]`: above 12 µM and above 12 µM. The matching figures for `CC(C)OP(=O)(OC(C)C)/C(C#N)=C/c1ccco1`: above 200 µM and above 200 µM.

For the compound `C=C1[C@@H]2CC[C@@]3([C@@H](C2)[C@@]24CCC[C@@]5(C)CN(CCO)[C@@H]2O[C@@H]3C[C@H]54)[C@@H]1O`, the result was inactive.

`Cc1ccc(C2=C(O)C(=O)C(c3ccc(C)cc3)=C(O)C2=O)cc1`: the EC50 was above 52.5 µM and the IC50 was 26.3 µM. On to `O=C1C(Cl)N(c2ccc(Cl)cc2Cl)C1c1c[nH]c2ccccc12` (stereo not drawn), for which the EC50 was above 70.8 µM and the IC50 is above 70.8 µM. With `CCCCc1c2c(nc3c1CCc1cc(C=O)c(N)nc1-3)/C(=C/c1ccccc1)CCC2`, the EC50 was above 4.37 µM and the IC50 was above 4.37 µM. As for `O=S(=O)(O)c1cccc(N=Nc2cc(S(=O)(=O)O)c3cccnc3c2O)c1`, the EC50 is above 550 µM and the half-inhibitory concentration (IC50) is above 550 µM. `CC(Nc1cc(=O)n(C)c(=O)[nH]1)c1ccccc1` (stereo not drawn): the EC50 was 55 µM and the IC50 is above 200 µM. For `S=c1sc2ccccc2n1CNc1ccccc1Cl`, the EC50 is above 200 µM and the IC50 worked out at 28.2 µM.
